The record followed here is ChEMBL document CHEMBL3286103.

Active and inactive are the calls of the source. The calls are words filed in the database; no cut-off is given here.

In the assay the target is T1, Vitamin D3 receptor A (Danio rerio) (UniProt Q9PTN2).
T1 sequence (whole entry): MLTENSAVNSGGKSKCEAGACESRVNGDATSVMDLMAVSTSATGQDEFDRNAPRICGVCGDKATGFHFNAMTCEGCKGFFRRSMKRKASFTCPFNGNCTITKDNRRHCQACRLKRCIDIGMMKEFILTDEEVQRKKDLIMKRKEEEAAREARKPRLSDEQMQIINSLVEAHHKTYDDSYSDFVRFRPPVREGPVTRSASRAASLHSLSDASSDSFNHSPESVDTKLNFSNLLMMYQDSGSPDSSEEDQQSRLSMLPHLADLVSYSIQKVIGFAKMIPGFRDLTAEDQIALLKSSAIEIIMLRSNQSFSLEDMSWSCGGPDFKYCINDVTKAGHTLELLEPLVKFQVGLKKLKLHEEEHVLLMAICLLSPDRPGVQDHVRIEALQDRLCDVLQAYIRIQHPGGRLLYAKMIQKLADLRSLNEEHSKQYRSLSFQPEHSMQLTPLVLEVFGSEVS
The experiment in a line: Binding affinity to N-terminal His-tagged zebrafish VDR LBD (154 to 456) at 10 to 20-fold molar excess by ESI-MS analysis.

In the case of `C[C@H](CCC(=O)O)[C@H]1CC[C@H]2[C@@H]3CC[C@@H]4C[C@H](O)CC[C@]4(C)[C@H]3CC[C@]12C`, the outcome was Active.
